In patent US5409933A, “Quinoline derivatives and processes for preparing the same” (priority 1993, dated 1995):
Structures can show the parent of a compound that is named as a salt. Where two headings read alike, the source gives them in different places.

What was measured:
Assay in all cases: In Vitro Anti-Bacterial Activity Test (MIC, agar dilution)
Type in all cases: cell-based
[1] = test system: Enterobacter cloacae 1321E; conditions: Enterobacter cloacae 1321E; Muller-Hinton agar, 37° C., 18 hours; read-out: MIC
Procedure: (§1) The above in vitro antibacterial activity test was carried out in accordance with the agar culture medium dilution method (Hoechst 345) by using Muller-Hinton agar medium to determine the minimum inhibitory concentration (MIC).
(§2) The strains having 10^7 C.F.U./ml were inoculated on the culture medium, and the growth of the strains was observed after incubating them at 37° C. for 18 hours, in which ciprofloxacin was used as a control antibacterial agent. In this test, twenty typical strains were used.

Enterobacter cloacae P99 = conditions: Enterobacter cloacae, P99, 18 h
Procedure: as §1, §2

Escherichia coli 078 = test system: Escherichia coli 078
Procedure: as §1, §2

Escherichia coli 1507E = conditions: Muller-Hinton agar, 37° C.
Procedure: as §1, §2

Escherichia coli DC0 = conditions: Muller-Hinton agar, 37° C., 18 hours, read-out: MIC
Procedure: as §1, §2

Escherichia coli DC2 = conditions: Escherichia coli, DC2, 18 h
Procedure: as §1, §2

Escherichia coli TEM = conditions: Muller-Hinton agar, 37° C.
Procedure: as §1, §2

[2] = test system: Klebsiella aerogenes 1522E; conditions: Klebsiella aerogenes 1522E, Muller-Hinton agar, 37° C., 18 hours
Procedure: as §1, §2

Klebsiella oxytoca 1082E = conditions: Klebsiella oxytoca 1082E; Muller-Hinton agar, 37° C., 18 hours; read-out: MIC
Procedure: as §1, §2

[3] = test system: Pseudomonas aeruginosa 1592E; conditions: Muller-Hinton agar, 37° C., 18 hours, read-out: MIC
Procedure: as §1, §2

[4] = test system: Pseudomonas aeruginosa 1771M; conditions: Muller-Hinton agar, 37° C.
Procedure: as §1, §2

[5] = test system: Pseudomonas aeruginosa 1771; conditions: Pseudomonas aeruginosa 1771; Muller-Hinton agar, 37° C., 18 hours; read-out: MIC
Procedure: as §1, §2

[6] = test system: Pseudomonas aeruginosa 9027; conditions: Muller-Hinton agar, 37° C., 18 hours, read-out: MIC
Procedure: as §1, §2

Salmonella typhimurium = conditions: Salmonella enterica; Salmonella typhimurium; Muller-Hinton agar, 37° C., 18 hours; read-out: MIC
Procedure: as §1, §2

[7] = test system: Staphylococcus aureus 285; conditions: Staphylococcus aureus 285, Muller-Hinton agar, 37° C., 18 hours
Procedure: as §1, §2

[8] = test system: Staphylococcus aureus 503; conditions: Staphylococcus aureus 503; Muller-Hinton agar, 37° C., 18 hours; read-out: MIC
Procedure: as §1, §2

[9] = test system: Staphylococcus aureus SG511; conditions: Staphylococcus aureus SG511; Muller-Hinton agar, 37° C., 18 hours; read-out: MIC
Procedure: as §1, §2

[10] = test system: Streptococcus faecium MD8b; conditions: Enterococcus faecium, Muller-Hinton agar, 37° C., 18 hours, read-out: MIC
Procedure: as §1, §2

[11] = test system: Streptococcus pyogenes 308A; conditions: Muller-Hinton agar, 37° C., 18 hours, read-out: MIC
Procedure: as §1, §2

[12] = test system: Streptococcus pyogenes 77A
Procedure: as §1, §2

[13] = Escherichia coli 078, Muller-Hinton agar, 37° C., 18 hours, read-out: MIC
[14] = Klebsiella aerogenes, 1522E, 18 h, read-out: MIC
[15] = Pseudomonas aeruginosa, 1771M, 18 h
[16] = Staphylococcus aureus, 285, 18 h, read-out: MIC
[17] = Streptococcus pyogenes, 77A, 18 h
[18] = Streptococcus pyogenes 77A, Muller-Hinton agar, 37° C., 18 hours, read-out: MIC

Row | Structure (SMILES) | MIC [1] [µg/mL] | MIC (Enterobacter cloacae P99) [µg/mL] | MIC (Escherichia coli 078; [13]) [µg/mL] | MIC (Escherichia coli 1507E; 18 hours, read-out: MIC) [µg/mL] | MIC (Escherichia coli DC0) [µg/mL] | MIC (Escherichia coli DC2) [µg/mL] | MIC (Escherichia coli TEM; Escherichia coli, 18 h) [µg/mL] | MIC [2, 14] [µg/mL] | MIC (Klebsiella oxytoca 1082E) [µg/mL] | MIC [3] [µg/mL] | MIC [4, 15] [µg/mL] | MIC [5] [µg/mL] | MIC [6] [µg/mL] | MIC (Salmonella typhimurium) [µg/mL] | MIC [7, 16] [µg/mL] | MIC [8] [µg/mL] | MIC [9] [µg/mL] | MIC [10] [µg/mL] | MIC [11] [µg/mL] | MIC (Escherichia coli 1507E; Escherichia coli, 1507E, 18 h) [µg/mL] | further results
1 | O=C(C[N+](=O)[O-])c1cn(C2CC2)c2c(F)c(N3CCNCC3)c(F)cc2c1=O [Example 6, 1-cyclopropyl-6,8-difluoro-7-(piperazin-1-yl)-3-(2-nitroacetyl)-1,4-dihydro-4-oxoquinoline hydrochloride] | < 0.002 | < 0.002 | < 0.002 | < 0.002 | 0.195 | 0.098 | < 0.002 | 0.007 | < 0.002 | 0.195 | 0.049 | 0.195 | 0.391 | < 0.002 | 0.195 | 0.391 | 0.098 | 0.781 | 3.12 |  | MIC [12, 17]: 0.781 µg/mL
2 | CC(=O)C(C(C)=O)C(=O)c1cn(C2CC2)c2c(Cl)c(N3CCC(N)C3)c(F)cc2c1=O (stereo not drawn) [Example 48, 1-cyclopropyl-6-fluoro-8-chloro-7-(3-aminopyrrolidin-1-yl)-3-(2,2-diacetoacetyl)-1,4-dihydro-4-oxoquinoline hydrochloride] | 0.098 | 0.098 |  |  | 0.391 | 0.098 | 0.049 | 0.195 | 0.195 | 1.56 | 0.781 | 3.12 | 3.12 | 0.391 | 0.195 | 0.195 | 0.195 | 0.195 | 0.781 | 0.195 | MIC (Escherichia coli 078; Escherichia coli, 078, 18 h): 0.049 µg/mL; MIC [12, 18]: 0.391 µg/mL
3 | CCOC(=O)CC(=O)c1cn(C2CC2)c2c(F)c(N3CCC(N)C3)c(F)cc2c1=O (stereo not drawn) [Example 21, 1-cyclopropyl-6,8-difluoro-7-(3-aminopyrrolidin-1-yl)-3-(2-ethoxycarbonylacetyl)-1,4-dihydro-4-oxoquinoline hydrochloride] | < 0.002 | 0.007 | 0.004 |  | 0.098 | 0.049 | 0.013 | 0.025 | 0.004 | 0.391 | 0.098 | 0.195 | 0.391 | 0.013 | 0.049 | 0.049 | 0.049 | 0.781 | 0.781 | 0.013 | MIC [12, 18]: 0.391 µg/mL
4 | O=C(C[N+](=O)[O-])c1cn(C2CC2)c2cc(N3CCNCC3)c(F)cc2c1=O [Example 5, 1-cyclopropyl-6-fluoro-7-(piperazin-1-yl)-3-(2-nitroacetyl)-1,4-dihydro-4-oxoquinoline trifluoroacetate] |  |  |  | 0.013 |  |  |  |  |  |  |  |  |  |  |  |  |  |  |  |  | MIC (Escherichia coli TEM; 18 hours, trifluoroacetate): 0.007 µg/mL; MIC ([2]; trifluoroacetate): 0.025 µg/mL; MIC ([4]; 18 hours, trifluoroacetate): 0.049 µg/mL; MIC ([7]; trifluoroacetate): 0.195 µg/mL
5 | CCOC(=O)C(C(=O)OCC)C(=O)c1cn(C2CC2)c2c(OC)c(N3CC[C@H](NC)C3)c(F)cc2c1=O [Example 59, 1-cyclopropyl-6-fluoro-8-methoxy-7-(3-3S-methylaminopyrrolidin-1-yl)-3-(2,2-diethoxycarbonylacetyl)-1,4-dihydro-4-oxoquinoline hydrochloride] | 0.049 | 0.049 |  |  | 0.781 | 0.098 | 0.049 | 0.098 | 0.007 |  | 0.781 | 1.56 | 1.56 | 0.049 | 0.098 | 0.098 | 0.098 | 0.781 | 0.781 | 0.391 | MIC (Escherichia coli 078; Escherichia coli, 078, 18 h): 0.049 µg/mL; MIC [12, 17]: 0.781 µg/mL
